For the test, the system named is HCV 1b_Huh-Luc/Neo-ET cell line persistently expressing a bicistronic genotype 1b replicon in Huh 7 cells. The experiment in a line: HCV replicon assay, luciferase enzyme activity readout. Type of test: cell-based. Particulars: Hepatitis C virus, 72 h incubation, average EC50 range, read-out: Inhibition of HCV genotype 1b. How it is done: Biological activity of the compounds of the invention was determined using an HCV replicon assay. The HCV 1b_Huh-Luc/Neo-ET cell line persistently expressing a bicistronic genotype 1b replicon in Huh 7 cells was obtained from ReBLikon GMBH. This cell line was used to test compound inhibition using luciferase enzyme activity readout as a measurement of compound inhibition of replicon levels.
On Day 1 (the day after plating cells), each compound is added in triplicate to the cells. Plates are incubated for 72 h prior to determining luciferase levels. Enzyme activity was measured using a Bright-Glo Kit (cat. number E2620) manufactured by Promega Corporation. The following equation was used to generate a percent control value for each compound. % Control=(Compound Luciferase Level/Control Luciferase Level)*100
The EC50 value was determined using GraphPad Prism and the following equation: Y=Bottom asymptote+(Top asymptote−Bottom asymptote)/(1+10^((Log EC50−X)*HillSlope))
EC50 values of compounds are determined several times in the replicon assay to generate average EC50 values. […]
Background: A replicon is a self-replicating genome or part of one, used to study replication in cells.

Where only a bound is given, the exact number is not on record here.

As for `COC(=O)N[C@H](C(=O)N1CCC[C@H]1c1ncc(-c2ccc3c(c2)CCc2cc(-c4cnc([C@@H]5CCCN5C(=O)[C@@H](NC(=O)OC)C(C)C)[nH]4)ccc2O3)[nH]1)C(C)C` [Compound 7], the EC50 was less than 1 nM.
Turning to `COC(=O)N[C@@H](C(=O)N1CCC[C@H]1c1ncc(-c2ccc3oc4cc(-c5cnc([C@@H]6CCCN6C(=O)[C@H](NC(=O)OC)c6ccccc6)[nH]5)c(Cl)cc4c(=O)c3c2)[nH]1)c1ccccc1` [Compound 58], the EC50 was less than 1 nM.
Under `COC(=O)N[C@H](C(=O)N1CCC[C@H]1c1ncc(-c2ccc3c(=O)c4cc(-c5cnc([C@@H]6CCCN6C(=O)[C@H](NC(=O)OC6CCOCC6)c6ccccc6)[nH]5)ccc4oc3c2)[nH]1)C(C)C` [Compound 19] stands less than 1 nM; under `CC(C)(C)OC(=O)N1CCC[C@H]1c1ncc(-c2ccc3c(=O)c4cc(-c5cnc([C@@H]6CCCN6C(=O)OC(C)(C)C)[nH]5)ccc4oc3c2)[nH]1` [Compound 9], 10 to 999 nM; under `COC(=O)N[C@H](C(=O)N1CCCC[C@H]1c1ncc(-c2ccc3c(c2)Oc2ccc(-c4cnc([C@@H]5CCCCN5C(=O)[C@@H](NC(=O)OC)C(C)C)[nH]4)cc2O3)[nH]1)C(C)C` [Compound 47], less than 1 nM.
In the case of `COC(=O)N[C@H](C(=O)N1CCC[C@H]1c1ncc(-c2ccc3c(c2)Cc2cc(F)c(-c4cnc([C@@H]5CCCN5C(=O)[C@@H](NC(=O)OC)[C@@H](C)OC)[nH]4)cc2O3)[nH]1)C1CCOCC1` [Compound 42] it was less than 1 nM; in that of `COC(=O)N[C@H](C(=O)N1CCC[C@H]1c1ncc(-c2ccc3c(=O)c4cc(-c5cnc([C@@H]6CCCN6C(=O)[C@@H](NC(=O)OC)C6CCOCC6)[nH]5)ccc4oc3c2)[nH]1)C(C)C` [Compound 16], less than 1 nM; in that of `COC(=O)N[C@H](C(=O)N1CCC[C@H]1c1ncc(-c2ccc3c(c2)Oc2ccc(-c4cnc([C@@H]5CCCN5C(=O)[C@@H](NC(=O)OC)C5CCCC5)[nH]4)cc2O3)[nH]1)C1CCCC1` [Compound 33], less than 1 nM.
For `COC(=O)N[C@H](C(=O)N1CCC[C@H]1c1ncc(-c2ccc3c(c2)Oc2ccc(-c4cnc([C@@H]5CCCN5C(=O)[C@@H](NC(=O)OC)C(C)C)[nH]4)cc2C32CC2)[nH]1)C(C)C` [Compound 26], the EC50 was less than 1 nM.
`COC(=O)N[C@H](C(=O)N1CCC[C@H]1c1ncc(-c2ccc3oc4cc(-c5cnc([C@@H]6CCCN6C(=O)[C@@H](NC(=O)OC)C6CCOCC6)[nH]5)c(Cl)cc4c(=O)c3c2)[nH]1)C1CCOCC1` [Compound 52]: the EC50 is less than 1 nM.
For the compound `COC(=O)N[C@H](C(=O)N1CCC[C@H]1c1ncc(-c2ccc3nc4cc(-c5cnc([C@@H]6CCCN6C(=O)[C@@H](NC(=O)OC)C(C)C)[nH]5)ccc4nc3c2)[nH]1)C(C)C` [Compound 1], the EC50 is less than 1 nM.
In the case of `CC[C@H](C)[C@H](NC(=O)OC)C(=O)N1CCC[C@H]1c1ncc(-c2cc3c(cc2F)Cc2cc(-c4cnc([C@@H]5CCCN5C(=O)[C@@H](NC(=O)OC)[C@@H](C)OC)[nH]4)ccc2O3)[nH]1` [Compound 54] it was less than 1 nM; in that of `COC(=O)N[C@H](C(=O)N1CSC[C@H]1c1ncc(-c2ccc3c(c2)Oc2ccc(-c4cnc([C@@H]5CSCN5C(=O)[C@@H](NC(=O)OC)C(C)C)[nH]4)cc2O3)[nH]1)C(C)C` [Compound 36], less than 1 nM; in that of `COC(=O)N[C@H](C(=O)N1CCC[C@H]1c1ncc(-c2ccc3c(c2)Cc2ccc(-c4cnc([C@@H]5CCCN5C(=O)[C@@H](NC(=O)OC)C5CCCC5)[nH]4)cc2O3)[nH]1)C1CCCC1` [Compound 32], less than 1 nM.
Regarding `CC[C@H](C)[C@H](NC(=O)OC)C(=O)N1CCC[C@H]1c1ncc(-c2ccc3oc4cc(-c5cnc([C@@H]6CCCN6C(=O)[C@@H](NC(=O)OC)[C@@H](C)CC)[nH]5)c(Cl)cc4c(=O)c3c2)[nH]1` [Compound 51], the EC50 is less than 1 nM.
Under `COC(=O)N[C@@H](C(=O)N1CCC[C@H]1c1ncc(-c2ccc3c(c2)Cc2cc(-c4cnc([C@@H]5CCCN5C(=O)[C@H](NC(=O)OC)c5ccccc5)[nH]4)ccc2O3)[nH]1)c1ccccc1` [Compound 5] stands less than 1 nM; under `C#CC[C@H](NC(=O)OC)C(=O)N1CCC[C@H]1c1ncc(-c2ccc3c(c2)Oc2ccc(-c4cnc([C@@H]5CCCN5C(=O)[C@H](CC#C)NC(=O)OC)[nH]4)cc2O3)[nH]1` [Compound 56], less than 1 nM; under `COC(=O)N[C@@H](C(=O)N[C@@H](C)c1ncc(-c2ccc3c(c2)Oc2ccc(-c4cnc([C@H](C)NC(=O)[C@H](NC(=O)OC)c5ccccc5)[nH]4)cc2O3)[nH]1)c1ccccc1` [Compound 38], less than 1 nM.
For the compound `COC(=O)N[C@H](C(=O)N1CCOC[C@H]1c1ncc(-c2ccc3c(c2)Oc2ccc(-c4cnc([C@@H]5COCCN5C(=O)[C@@H](NC(=O)OC)C(C)C)[nH]4)cc2O3)[nH]1)C(C)C` [Compound 64], the EC50 was less than 1 nM.
On to `COC(=O)N[C@@H](C(=O)N1CCC[C@H]1c1ncc(-c2ccc3oc4cc(-c5cnc([C@@H]6CCCN6C(=O)[C@H](NC(=O)OC)c6ccccc6)[nH]5)c(F)cc4c(=O)c3c2)[nH]1)c1ccccc1` [Compound 24], for which the EC50 is less than 1 nM.
Under `COC(=O)N[C@@H](C(=O)N1CSC[C@H]1c1ncc(-c2ccc3c(c2)Oc2ccc(-c4cnc([C@@H]5CSCN5C(=O)[C@H](NC(=O)OC)c5ccccc5)[nH]4)cc2O3)[nH]1)c1ccccc1` [Compound 37] stands less than 1 nM.
For `COC(=O)N[C@H](C(=O)N1CCC[C@H]1c1ncc(-c2ccc3c(c2)Oc2ccc(-c4cnc([C@@H]5CCCN5C(=O)[C@@H](NC(=O)OC)[C@@H](C)OC)[nH]4)cc2O3)[nH]1)[C@@H](C)OC` [Compound 34], the EC50 was less than 1 nM.
Under `COC(=O)N[C@H](C(=O)N1CCC[C@H]1c1ncc(-c2ccc3oc4cc(-c5cnc([C@@H]6CCCN6C(=O)[C@@H](NC(=O)OC)[C@@H](C)OC)[nH]5)c(Cl)cc4c(=O)c3c2)[nH]1)[C@@H](C)OC` [Compound 50] stands less than 1 nM; under `COC(=O)N[C@H](C(=O)N1CCC[C@H]1c1ncc(-c2ccc3c(c2)Cc2ccc(-c4cnc([C@@H]5CCCN5C(=O)[C@@H](NC(=O)OC)[C@@H](C)OC)[nH]4)cc2O3)[nH]1)[C@@H](C)OC` [Compound 30], less than 1 nM; under `COC(=O)N[C@H](C(=O)N1CCC[C@H]1c1ncc(-c2ccc3oc4cc(-c5cnc([C@@H]6CCCN6C(=O)[C@@H](NC(=O)OC)C6CCOCC6)[nH]5)c(F)cc4c(=O)c3c2)[nH]1)C1CCOCC1` [Compound 23], less than 1 nM.
Consider `COC(=O)N[C@H](C(=O)N1CCC[C@H]1c1ncc(-c2ccc3c(c2)Cc2cc(Cl)c(-c4cnc([C@@H]5CCCN5C(=O)[C@@H](NC(=O)OC)[C@@H](C)OC)[nH]4)cc2O3)[nH]1)[C@@H](C)OC` [Compound 62], for which the EC50 was less than 1 nM.
For the compound `COC(=O)N[C@H](C(=O)N1CCC[C@H]1c1ncc(-c2ccc3oc4cc(-c5cnc([C@@H]6CCCN6C(=O)[C@@H](NC(=O)OC)C(C)C)[nH]5)c(Cl)cc4c(=O)c3c2)[nH]1)C(C)C` [Compound 49], the EC50 was less than 1 nM.
In the case of `COC(=O)N[C@@H](C(=O)N1CCCC[C@H]1c1ncc(-c2ccc3c(c2)Oc2ccc(-c4cnc([C@@H]5CCCCN5C(=O)[C@H](NC(=O)OC)c5ccccc5)[nH]4)cc2O3)[nH]1)c1ccccc1` [Compound 48] it was less than 1 nM; in that of `COC(=O)N[C@H](C(=O)N1CCC[C@H]1c1ncc(-c2cc3oc4ccc(-c5cnc([C@@H]6CCCN6C(=O)[C@H](NC(=O)OC)c6ccccc6)[nH]5)cc4c(=O)c3cc2F)[nH]1)C(C)C` [Compound 27], less than 1 nM; in that of `COC(=O)N[C@H](C(=O)N1CCC[C@H]1c1ncc(-c2ccc3oc4cc(-c5cnc([C@@H]6CCCN6C(=O)[C@H](NC(=O)OC)c6ccccc6)[nH]5)ccc4c(=O)c3c2)[nH]1)C(C)C` [Compound 18], less than 1 nM.
In the case of `CC[C@H](C)[C@H](NC(=O)OC)C(=O)N1CCC[C@H]1c1ncc(-c2ccc3c(c2)Cc2cc(Cl)c(-c4cnc([C@@H]5CCCN5C(=O)[C@@H](NC(=O)OC)[C@@H](C)CC)[nH]4)cc2O3)[nH]1` [Compound 63] it was less than 1 nM; in that of `COC(=O)N[C@H](C(=O)N1CCC[C@H]1c1ncc(-c2ccc3c(c2)CCc2ccc(-c4cnc([C@@H]5CCCN5C(=O)[C@@H](NC(=O)OC)C(C)C)[nH]4)cc2O3)[nH]1)C(C)C` [Compound 12], less than 1 nM; in that of `COC(=O)N[C@@H](C(=O)N1CCOC[C@H]1c1ncc(-c2ccc3c(c2)Oc2ccc(-c4cnc([C@@H]5COCCN5C(=O)[C@H](NC(=O)OC)c5ccccc5)[nH]4)cc2O3)[nH]1)c1ccccc1` [Compound 65], less than 1 nM.
Under `COC(=O)N[C@H](C(=O)N1CCC[C@H]1c1ncc(-c2ccc3oc4cc(-c5cnc([C@@H]6CCCN6C(=O)[C@H](NC(=O)OC6CCOCC6)c6ccccc6)[nH]5)ccc4c(=O)c3c2)[nH]1)C(C)C` [Compound 21] stands less than 1 nM.
Consider `CC[C@H](C)[C@H](NC(=O)OC)C(=O)N1CCC[C@H]1c1ncc(-c2cc3c(cc2F)Cc2cc(-c4cnc([C@@H]5CCCN5C(=O)[C@H](COC)NC(=O)OC)[nH]4)ccc2O3)[nH]1` [Compound 60], for which the EC50 is less than 1 nM.
Turning to `COC(=O)N[C@@H](C(=O)N1CCC[C@H]1c1ncc(-c2ccc3nc4cc(-c5cnc([C@@H]6CCCN6C(=O)[C@H](NC(=O)OC)c6ccccc6)[nH]5)ccc4nc3c2)[nH]1)c1ccccc1` [Compound 2], the EC50 was less than 1 nM.

(Values after patent US9150554B2, “Fused ring inhibitors of hepatitis C” (Presidio Pharmaceuticals, Inc., priority 2009, dated 2015).)
